# US10184933B2, “Compositions, systems and methods for gene expression noise drug screening and uses thereof” (priority 2013, dated 2019)
# Entries after “also recorded” stand apart in the source; their conditions may differ. Where a name gives a salt, the structure may show the parent alone. Read-outs that look alike come from different tables or passages of the source.
# What was measured:
# [1] = tested on: latent HIV-1; conditions: Bocklandt et al., 2003; cited from earlier work
# [2] = tested on: HIV-1 LTR promoter; conditions: shotgun imaging approach, Boehm et al., 2013; cited from earlier work
# [3] = tested on: HIV-1 LTR promoter; assay type: cell-based
# [4] = tested on: HIV-1 LTR promoter; assay: Two-reporter system (LTR-d2GFP and LTR-mCherry) noise measurement; assay type: cell-based; conditions: FIG. 6E; for d2GFP noise / mCherry noise: known transcriptional activators; for transcriptional burst frequency (decreasing noise in mCherry): transcriptional modifiers
# Description: Without being bound by theory, a destabilized reporter is required to observe transcriptional noise with shorter time scales. GFP noise magnitude (quantified by the variance over the mean fluorescence squared, CV^2) and mean fluorescence were measured by high-throughput flow cytometry 24 hours post 10 uM drug exposure. To control for extrinsic variability in gene expression due to cell volume and state a conservative gating on the population forward versus side scatter was applied (See General Methods). A second LTR driving a long-lived mCherry reporter was integrated and screened alongside the destabilized reporter drug target to control for fluctuations in global resources and post-transcriptional noise sources (FIG. 6E).
# To distinguish between compounds that primarily target transcription versus post-transcriptional processes and global resources (extrinsic noise) a second reporter of the LTR promoter driving a stable mCherry gene was included in the same targeted cell population used in the drug noise screen (FIG. 6E). The stable reporter averages out and is unaffected by fluctuations due to episodic transcription. Theory predicts that the destabilized d2GFP reporter can detect transcriptional bursting noise contributions (γp>>kon,koff, where γp is the fluorescent reporter degradation rate) while the two reporters together will move their noise magnitudes to changes in non-transcriptional noise sources. Filtering out non-transcriptional noise signatures of VM hits increases the probability for synergistic reactivation of latency. Noise from the two reporters was compared using the same processing as the LTR-d2GFP. The LTR-mCherry ΔCV^2 of the 85 selected VMs primarily land along the ΔCV^2 d2GFP axis. […]. Of these 25 compounds 15 were identified as modifiers of cell cycle, ATP, inflammation, post-translational modifications, and translation.
# In addition to the GFP reporter in the LTR-d2GFP cell line, an LTR driving a long half-life mCherry reporter was present in the cell line. […] To remove compounds that altered CV^2 post transcriptionally, compounds that affected the CV^2 long-lived red reporter while conserving its mean mCherry level were removed. This method continues development of the original and decade-old 2-reporter system for intrinsic versus extrinsic noise measurements in bacteria (Elowitz et al., (2002) Science 297:1183-1186).
# [5] = >500 nM for more than 2 days; Williams et al., 2004; cited from earlier work
# [6] = tested on: latent HIV-1 in JLat 8.6 cells; assay type: cell-based
# [7] = tested on: HIV-1 LTR promoter; assay: Two-reporter system (LTR-d2GFP and LTR-mCherry) noise measurement; assay type: cell-based; conditions: alternate set of integration sites
# [8] = tested on: JLat cell line 8.6
# Description: FIG. 17 schematically depicts reactivation percentage versus drug toxicity for conventional reactivation cocktails (e.g. TNF+Prostratin, SAHA+Prostratin, SAHA+TNF+Prostratin) and 21 cocktails containing noise-enhancer compounds in combination with TNF+Prostratin. Controls: TNF alone, Prostratin alone, and Untreated, as indicated. Measurements were performed in duplicate on JLat cell line 8.6 after 48 h treatment. […] Details are described, e.g., in Example 9.
# To test whether reactivation could be further optimized, the doses of noise enhancers and activators were varied (FIG. 14).
# [9] = in vivo, cited from earlier work
# [10] = tested on: latent HIV-1 in JLat 15.4; assay: HIV-1 latency reactivation in JLat 15.4 cells; assay type: cell-based
# [11] = tested on: latent HIV-1 in primary T-cells; assay type: cell-based; conditions: primary T-cell model
# Description: FIG. 18A schematically depicts a primary T-cell model of HIV-1 latency 48 h after reactivation with PMA or a subset of noise enhancers (% reactivation percentage is calculated relative to maximal reactivation potential). […] The horizontal line represents the mean calculated Bliss Independence Score (C. I. Bliss, Ann. Appl. Biol. 26:585-615 (1939)), a measure for strict additivity for all of the compounds. FIG. 18B schematically depicts stochastic simulations of noise suppression, which reduces noise without altering the mean expression level but limits reactivation induced by an activator. […] Details are described, e.g., in Example 10.
# [12] = tested on: latent HIV-1 in JLat 9.2 cells; assay: HIV-1 latency reactivation in JLat 9.2 cells; assay type: cell-based
# Description: Jurkat cells were cultured in RPMI 1640 supplemented with 10% FBS and 1% penicillin-streptomycin. JLat 6.3, JLat 8.6, and JLat 9.2 cells are Jurkat T cell lines containing integrated but transcriptionally latent HIV-1 proviruses.
# Drug treatments were performed for 24 hours at 10 uM final concentration in 96-well plates. Compounds were automatically added into 200 μl cultures at the final concentration of 0.1% DMSO. […] Plates were kept in the incubator until measurement and each well was automatically mixed before samples were analyzed. 5×10^4 of all live cells that passed a specific forward scatter (FSC)—side scatter (SSC) gate were collected from each well for noise magnitude measurements from which a conservative gating was applied for about 3×10^3 cells of similar FSC vs SSC to reduce extrinsic noise contributions primarily due to differences in cell volume and state. Each 96-well plate included a column of untreated control cells, cells treated with TNFα (positive control) and one well of non-′ fluorescent naïve Jurkat cells. For HIV-1 reactivation experiments 1×10^4 live cells were collected.
# [13] = known transcriptional modulators applied to the isoclone target, FIG. 6D
smiles,measurement,setting,value
"CC1=C[C@H]2[C@@]3(O)[C@H](C)C[C@]4(OC(=O)Cc5ccccc5)C([C@@H]3C=C(CO)C[C@]2(O)C1=O)C4(C)C (stereo partly drawn) [DPP, 12-deoxyphorbol 13-phenylacetate]",potency relative to prostratin,[1],20-40 fold
"Cc1sc2c(c1C)C(c1ccc(Cl)cc1)=N[C@@H](CC(=O)OC(C)(C)C)c1nnc(C)n1-2 [JQ1, t-Butyl-2-((6S)-4-(4-chlorophenyl)-2,3,9-trimethyl-6H-thieno[3,2-f][1,2,4]triazolo[4,3-a][1,4]diazepin-6-yl)acetate]",noise magnitude across integration sites,[2],global increase in noise magnitude
same,variability in gene expression (noise magnitude),[3]; [13],increase variability in gene expression; also recorded: variability enhancers
"CC(=O)O[C@@]12C[C@@H](C)[C@@]3(O)[C@@H](C=C(CO)C[C@]4(O)C(=O)C(C)=C[C@@H]34)[C@@H]1C2(C)C [Prostratin, 12-deoxyphorbol 13-acetate]",d2GFP noise,[4],decrease both mCherry and d2GFP noise
same,mCherry noise,[4],decrease both mCherry and d2GFP noise
same,transcriptional burst frequency (decreasing noise in mCherry),[4],increase transcriptional burst frequency
same,toxicity,[5],substantial growth arrest and cell death
same,reactivation by activator alone,"[6]; Prostratin alone, 48 hr",6%
same,burst frequency,"[3]; activator drugs, FIG. 6D",increase burst frequency
same,mean expression level,[3]; [13],increase mean expression level
same,variability in gene expression (noise magnitude),[3]; [13],decrease noise magnitude
same,variability in gene expression (noise magnitude),"[3]; known transcriptional modulators applied to the isoclone target, FIG. 6D, listed as prostratin",decrease variability in gene expression
"O=C(CCCCCCC(=O)Nc1ccccc1)NO [SAHA, N-hydroxy-N′-phenyl-octanediamide]",d2GFP noise,[4],increase d2GFP noise
same,mCherry noise,[4],decrease mCherry noise
same,transcriptional burst frequency (decreasing noise in mCherry),[4],increase transcriptional burst frequency
same,transcriptional variability (d2GFP) with dose response,[7],increasing transcriptional variability
same,off-target cytotoxicity for uninfected cells,[8],substantial off-target cytotoxicity
same,identified as variability enhancer (VE) in noise screen,"[3]; Pharmakon 1600 library, 10 uM, 24 hours, FIG. 10",variability enhancers
same,variability in gene expression (noise magnitude),[3]; [13],increase variability in gene expression; also recorded: variability enhancers
"CC(/C=C/C(=O)NO)=C\[C@@H](C)C(=O)c1ccc(N(C)C)cc1 [TSA, [R-(E,E)]-7-[4-(Dimethylamino)phenyl]-N-hydroxy-4,6-dimethyl-7-oxo-2,4-heptadienamide]",d2GFP noise,[4],increase d2GFP noise
same,mCherry noise,[4],decrease mCherry noise
same,transcriptional burst frequency (decreasing noise in mCherry),[4],increase transcriptional burst frequency
same,transcriptional variability (d2GFP) with dose response,[7],increasing transcriptional variability
same,variability in gene expression (noise magnitude),[3]; [13],increase variability in gene expression; also recorded: variability enhancers
"CCCC(CCC)C(=O)O [VPA, 2-propylpentanoic acid]",d2GFP noise,[4],increase d2GFP noise
same,mCherry noise,[4],decrease mCherry noise
same,time of peak serum levels,[9]; po,1 to 4 h
same,serum half-life,[9],6 to 16 h
same,variability in gene expression (noise magnitude),[3]; [13],increase variability in gene expression; also recorded: variability enhancers
"COC(=O)C1=C(C)NC(C)=C(C(=O)OCCN2CCN(C(c3ccccc3)c3ccccc3)CC2)C1c1cccc([N+](=O)[O-])c1 (stereo not drawn) [VS1, manidipine hydrochloride]",decrease of TNF-induced reactivation,[10],~40%
same,decrease of Prostratin-induced reactivation,[11],~50%
same,decrease of TNF-induced reactivation,[6]; JLat 8.6,~40%
same,decrease of TNFα-mediated reactivation,[12],about 40%
